Type in all cases: in vivo
The subject of test [1] is Pseudoperonospora cubensis. As to the kind of experiment: Test 2: control effect against cucumber downy mildew. The conditions noted are these: control value vs untreated section; for pest or weed control at 4 µg/mL: Pseudoperonospora cubensis, 120 h. How it is done:
(§1) A 10% wettable powder created according to the Pharmaceutical Formulation Example 1 was diluted with a Tween20 solution prepared to a concentration of 1/5000, then the compound of formula [1] was prepared to a concentration of 4 ppm. Further, the compound of formula [1] in Test 4 was adjusted to a concentration of 1,000 ppm.
<Test 2 Test of Control Effect Against Cucumber Downy Mildew>
(§2) Test suspension was applied to cucumber at the 2 leaf stage (species: Sagami hanjiro) in an amount of 20 ml per seedling. One day after application, zoospore suspension of Pseudoperonospora cubensis adjusted to a concentration of 1.0×10^4 units/ml was misted/inoculated, and the seedlings were incubated in a moist chamber adjusted to 22° C. for 16 hr. Then, the onset of the disease was induced in the chamber, and the lesion area rate on the leaves 5 days after inoculation was investigated to compute the control value using the formula below. control value={1−onset area rate of the leaves that were applied the test agent/onset area rate of untreated leaves}×100 Computational formula of the control value: […]

The test system of test [2] is Plasmopara viticola. The test can be described thus: Test 3: control effect against grape downy mildew. The note with it: control value vs untreated section; for pest or weed control at 4 µg/mL: Plasmopara viticola, 120 h. On the procedure: as §1
<Test 3 Test of Control Effect Against Grape Downy Mildew>
as §2, with “grape seedling” for “cucumber at the 2 leaf stage”, “Neomuscat)” for “Sagami hanjiro)”, “Plasmopara viticola” for “Pseudoperonospora cubensis”

The test system of test [3] is Phytophthora infestans. The test can be described thus: whole plant or invertebrate. The note with it: for control value (Test 1): tomato late blight, control value vs untreated section; for pest or weed control at 4 µg/mL: Phytophthora infestans, in Solanum lycopersicum, 96 h, read-out: control value (Test 1).

This note sets out measurements from patent US10104891B2 (priority 2014, dated 2018).

In the case of `CC1OC(c2csc(C3CCN(C(=O)Cn4nc(C(F)F)cc4C(F)F)CC3)n2)OCc2ccccc21` (mixture of isomers) [Compound 1-75], the “control value (Test 2)” value in test [1] worked out at 100. The “control value (Test 3)” value in test [2] stood at 100. In addition, the “control value (Test 1)” value in test [3] was determined as 100.
With `Cc1cc(C(F)(F)F)nn1CC(=O)N1CCC(c2nc(C3OCc4ccccc4CO3)cs2)CC1` [Compound 1-1], in test [1], the “control value (Test 2)” value was 100. Further, in test [2], the “control value (Test 3)” value amounted to 100. Also, the “control value (Test 1)” value in test [3] is 100.
On to `Cc1cc(C(F)(F)F)nn1CC(=O)N1CCC(c2nc(C3OCc4cccc(F)c4CO3)cs2)CC1` (stereo not drawn) [Compound 1-2], for which the “control value (Test 2)” value in test [1] is 100. Further, in test [2], the “control value (Test 3)” value turned out to be 100. Besides, the “control value (Test 1)” value in test [3] is on record as 100.
For `Cc1cc2c(cc1C)COC(c1csc(C3CCN(C(=O)Cn4nc(C(F)(F)F)cc4C)CC3)n1)OC2` [Compound 1-4], the “control value (Test 2)” value in test [1] is reported as 100. Further, the “control value (Test 3)” value in test [2] is on record as 100. Besides, the “control value (Test 1)” value in test [3] is listed as 100.
In the case of `Cc1cc(C(F)(F)F)nn1CC(=O)N1CCC(c2nc(C3OCc4cc(Cl)c(Cl)cc4CO3)cs2)CC1` [Compound 1-5], in test [1], the “control value (Test 2)” value was 100. Also, the “control value (Test 3)” value in test [2] worked out at 100. Moreover, in test [3], the “control value (Test 1)” value is recorded as 100.
For the molecule `CCS(=O)(=O)Oc1cccc2c1COC(c1csc(C3CCN(C(=O)Cn4nc(C(F)(F)F)cc4C)CC3)n1)OC2` (stereo not drawn) [Compound 1-7], the “control value (Test 2)” value in test [1] was found to be 100. In addition, the “control value (Test 3)” value in test [2] is recorded as 100. Besides, the “control value (Test 1)” value in test [3] is reported as 100.
As for `Cc1cc(C(F)(F)F)nn1CC(=O)N1CCC(c2nc(C3OCc4ccc(OS(C)(=O)=O)cc4CO3)cs2)CC1` (stereo not drawn) [Compound 1-9], the “control value (Test 2)” value in test [1] stood at 80. Further, in test [2], the “control value (Test 3)” value turned out to be 100. Moreover, in test [3], the “control value (Test 1)” value is 100.
On to `Cc1cc(C(F)(F)F)nn1CC(=O)N1CCC(c2nc(C3OCc4cc5ccccc5cc4CO3)cs2)CC1` [Compound 1-10, 4-[4-(1,5-dihydro-3H-2,4-naphthodioxepin-3-yl)-2-thiazolyl]-1-[2-[5-methyl-3-(trifluoromethyl)-1H-pyrazole-1-yl]acetyl]piperidine], for which the “control value (Test 2)” value in test [1] was 100. In test [2], the “control value (Test 3)” value is 100. Also, the “control value (Test 1)” value in test [3] is reported as 100.
As for `Cc1cc(C(F)(F)F)nn1CC(=O)N1CCC(c2nc(C3OCc4cccc([N+](=O)[O-])c4CO3)cs2)CC1` (stereo not drawn) [Compound 1-12], the “control value (Test 2)” value in test [1] is 100. For the same molecule, the “control value (Test 3)” value in test [2] came to 100. For the same molecule, the “control value (Test 1)” value in test [3] came to 100.
As for `Cc1cc(C(F)(F)F)nn1CC(=O)N1CCC(c2nc(C3OCc4cccc(OS(=O)(=O)C5CC5)c4CO3)cs2)CC1` (stereo not drawn) [Compound 1-13], the “control value (Test 2)” value in test [1] was 100. The “control value (Test 3)” value in test [2] is 100. Also, in test [3], the “control value (Test 1)” value is reported as 100.
For `Cc1cccc2c1COC(c1csc(C3CCN(C(=O)Cn4nc(C(F)(F)F)cc4C)CC3)n1)OC2` (stereo not drawn) [Compound 1-14], in test [1], the “control value (Test 2)” value was 100. Also, the “control value (Test 3)” value in test [2] is on record as 100. Moreover, in test [3], the “control value (Test 1)” value is recorded as 100.
Take `Cc1cc(C(F)(F)F)nn1CC(=O)N1CCC(c2nc(C3OCc4ccc(C(F)(F)F)cc4CO3)cs2)CC1` (stereo not drawn) [Compound 1-16]: the “control value (Test 2)” value in test [1] is given as 100. Besides, the “control value (Test 3)” value in test [2] is 100. In addition, the “control value (Test 1)” value in test [3] is given as 100.
Take `Cc1cc(C(F)(F)F)nn1CC(=O)N1CCC(c2nc(C3OCc4c(F)c(F)c(F)c(F)c4CO3)cs2)CC1` [Compound 1-17]: the “control value (Test 2)” value in test [1] was 100. Also, the “control value (Test 3)” value in test [2] is 100. Besides, the “control value (Test 1)” value in test [3] was 100.
For the molecule `Cc1cc(C(F)(F)F)nn1CC(=O)N1CCC(c2nc(C3OCc4ccccc4C(C)O3)cs2)CC1` (stereo not drawn) [Compound 1-18], the “control value (Test 2)” value in test [1] is 100. For the same molecule, in test [2], the “control value (Test 3)” value amounted to 100. The “control value (Test 1)” value in test [3] is 100.
In the case of `Cc1ccc(OS(C)(=O)=O)c2c1COC(c1csc(C3CCN(C(=O)Cn4nc(C(F)(F)F)cc4C)CC3)n1)OC2` (stereo not drawn) [Compound 1-19], in test [1], the “control value (Test 2)” value was 100. Also, in test [2], the “control value (Test 3)” value is given as 100. The “control value (Test 1)” value in test [3] is 100.
Turning to `Cc1ccc2c(c1)COC(c1csc(C3CCN(C(=O)Cn4nc(C(F)(F)F)cc4C)CC3)n1)OC2` (stereo not drawn) [Compound 1-20], the “control value (Test 2)” value in test [1] came to 100. In test [2], the “control value (Test 3)” value turned out to be 100. For the same molecule, the “control value (Test 1)” value in test [3] stood at 100.
In the case of `COc1ccc(Br)c2c1COC(c1csc(C3CCN(C(=O)Cn4nc(C(F)(F)F)cc4C)CC3)n1)OC2` (stereo not drawn) [Compound 1-24], in test [1], the “control value (Test 2)” value came out at 100. For the same molecule, the “control value (Test 3)” value in test [2] was determined as 100. The “control value (Test 1)” value in test [3] is on record as 100.
Take `CCCCCCCCS(=O)(=O)Oc1cccc2c1COC(c1csc(C3CCN(C(=O)Cn4nc(C(F)(F)F)cc4C)CC3)n1)OC2` (stereo not drawn) [Compound 1-25]: in test [1], the “control value (Test 2)” value is listed as 100. In test [2], the “control value (Test 3)” value amounted to 100. Moreover, the “control value (Test 1)” value in test [3] was found to be 100.
As for `COc1ccc(OS(C)(=O)=O)c2c1COC(c1csc(C3CCN(C(=O)Cn4nc(C(F)(F)F)cc4C)CC3)n1)OC2` (stereo not drawn) [Compound 1-26], the “control value (Test 2)” value in test [1] was determined as 100. In test [2], the “control value (Test 3)” value amounted to 100. Further, the “control value (Test 1)” value in test [3] was found to be 100.
For the molecule `Cc1cc(C(F)(F)F)nn1CC(=O)N1CCC(c2nc(C3OCc4ccc([N+](=O)[O-])cc4CO3)cs2)CC1` (stereo not drawn) [Compound 1-27], the “control value (Test 2)” value in test [1] turned out to be 100. Further, the “control value (Test 3)” value in test [2] is reported as 100. Besides, the “control value (Test 1)” value in test [3] stood at 100.
Regarding `Cc1cc(C(F)(F)F)nn1CC(=O)N1CCC(c2nc(C3OCc4cccc(OS(=O)(=O)C(C)C)c4CO3)cs2)CC1` (stereo not drawn) [Compound 1-28], the “control value (Test 2)” value in test [1] is given as 100. The “control value (Test 3)” value in test [2] is given as 100. Further, the “control value (Test 1)” value in test [3] is 100.
Consider `CCS(=O)(=O)Oc1ccc2c(c1)COC(c1csc(C3CCN(C(=O)Cn4nc(C(F)(F)F)cc4C)CC3)n1)OC2` (stereo not drawn) [Compound 1-29], for which the “control value (Test 2)” value in test [1] stood at 90. Moreover, in test [2], the “control value (Test 3)” value is recorded as 100. Further, the “control value (Test 1)” value in test [3] is recorded as 100.
For `Cc1cc(C(F)(F)F)nn1CC(=O)N1CCC(c2nc(C3OCc4cccc(OS(=O)(=O)CCC(F)(F)F)c4CO3)cs2)CC1` (stereo not drawn) [Compound 1-30], in test [1], the “control value (Test 2)” value was determined as 100. Besides, in test [2], the “control value (Test 3)” value was determined as 100. The “control value (Test 1)” value in test [3] was found to be 100.
Regarding `Cc1cc(C(F)(F)F)nn1CC(=O)N1CCC(c2nc(C3OCc4cc5c(cc4CO3)CCC5)cs2)CC1` [Compound 1-31], the “control value (Test 2)” value in test [1] is reported as 100. The “control value (Test 3)” value in test [2] was determined as 100. Besides, the “control value (Test 1)” value in test [3] turned out to be 100.
As for `O=C(Cn1nc(C(F)F)cc1C(F)F)N1CCC(c2nc(C3OCc4cccc(F)c4CO3)cs2)CC1` (stereo not drawn) [Compound 1-35], in test [1], the “control value (Test 2)” value is on record as 100. In addition, the “control value (Test 3)” value in test [2] was determined as 100. Moreover, the “control value (Test 1)” value in test [3] is recorded as 100.
Regarding `COC(=O)Oc1cccc2c1COC(c1csc(C3CCN(C(=O)Cn4nc(C(F)(F)F)cc4C)CC3)n1)OC2` (stereo not drawn) [Compound 1-37], the “control value (Test 2)” value in test [1] is reported as 100. In addition, in test [2], the “control value (Test 3)” value is on record as 100. In addition, the “control value (Test 1)” value in test [3] was found to be 100.
With `CS(=O)(=O)Oc1cccc2c1COC(c1csc(C3CCN(C(=O)Cn4nc(C(F)F)cc4C(F)F)CC3)n1)OC2` (stereo not drawn) [Compound 1-38, 4-[4-(6-methylsulfonyloxy-1,5-dihydro-3H-2,4-benzodioxepin-3-yl)-2-thiazolyl]-1-[2-[3,5-bis(difluoromethyl)-1H-pyrazole-1-yl]acetyl]piperidine], the pest or weed control at 4 µg/mL in test [1], in test [2] and in test [3] was 100% in each case.
Consider `COc1ccc(OS(C)(=O)=O)c2c1COC(c1csc(C3CCN(C(=O)Cn4nc(C(F)F)cc4C(F)F)CC3)n1)OC2` (stereo not drawn) [Compound 1-39, 4-[4-(6-methoxy-9-methylsulfonyloxy-1,5-dihydro-3H-2,4-benzodioxepin-3-yl)-2-thiazolyl]-1-[2-[3,5-bis(difluoromethyl)-1H-pyrazole-1-yl]acetyl]piperidine], for which the pest or weed control at 4 µg/mL in test [1], in test [2] and in test [3] was 100% throughout.
Turning to `O=C(Cn1nc(C(F)(F)F)cc1C(F)(F)F)N1CCC(c2nc(C3OCc4cccc(F)c4CO3)cs2)CC1` (stereo not drawn) [Compound 1-41], the “control value (Test 2)” value in test [1] was 100. Also, in test [2], the “control value (Test 3)” value was found to be 100. In addition, the “control value (Test 1)” value in test [3] came out at 100.
